# Measurements: ChEMBL document CHEMBL1201862, “PubChem BioAssay data set” (2004)
#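 Exposure lasted 48 hours, with cells grown in 96-well plates and compounds tested at five concentrations. GI50: concentration for 50% inhibition of growth.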 Active and inactive are the calls of the source. No stated cut-off is given here; in the data, active = GI50 up to about 1.1 µM and inactive = higher.
# What was measured:
# Assay in all cases: DTP human tumour cell line panel, 48 h
# A549 = tested on: A549
# CCRF-CEM = tested on: CCRF-CEM
# IGROV-1 = tested on: IGROV-1
# T47D = tested on: T47D
# SF-295 = tested on: SF-295
# DU-145 = tested on: DU-145
# U-251 = tested on: U-251
# LOX IMVI = tested on: LOX IMVI
# TK-10 = tested on: TK-10
# K562 = tested on: K562
# OVCAR-3 = tested on: OVCAR-3
# MCF7 = tested on: MCF7
# EKVX = tested on: EKVX
# HOP-62 = tested on: HOP-62
# SNB-19 = tested on: SNB-19
# SF-268 = tested on: SF-268
# UACC-257 = tested on: UACC-257
# Hs-578T = tested on: Hs-578T
# SF-539 = tested on: SF-539
Structure (SMILES),GI50 (A549),GI50 (CCRF-CEM),GI50 (IGROV-1),GI50 (T47D),GI50 (SF-295),GI50 (DU-145),GI50 (U-251),GI50 (LOX IMVI),GI50 (TK-10),GI50 (K562),GI50 (OVCAR-3),GI50 (MCF7),GI50 (EKVX),GI50 (HOP-62),GI50 (SNB-19),GI50 (SF-268),GI50 (UACC-257),GI50 (Hs-578T),GI50 (SF-539)
NC(=O)Nc1ccc(S(=O)(=O)Nc2ccc(S(N)(=O)=O)cc2)cc1,> 100 µM (inactive),> 100 µM (inactive),> 100 µM (inactive),> 100 µM (inactive),> 100 µM (inactive),> 100 µM (inactive),> 100 µM (inactive),> 100 µM (inactive),> 100 µM (inactive),> 100 µM (inactive),> 100 µM (inactive),> 100 µM (inactive),> 100 µM (inactive),> 100 µM (inactive),> 100 µM (inactive),0.649 µM (active),> 100 µM (inactive),–,–
COC(=O)CSC1CC(=O)c2c(Cl)sc(Cl)c21 (centres undefined),> 100 µM (inactive),> 100 µM (inactive),> 100 µM (inactive),> 100 µM (inactive),> 100 µM (inactive),> 100 µM (inactive),> 100 µM (inactive),> 100 µM (inactive),> 100 µM (inactive),> 100 µM (inactive),–,> 100 µM (inactive),> 100 µM (inactive),> 100 µM (inactive),> 100 µM (inactive),> 100 µM (inactive),> 100 µM (inactive),> 100 µM (inactive),–
O=c1[nH]nc(-c2ccccc2)n1/N=C/c1c(O)ccc2ccccc12,24.9 µM (inactive),> 100 µM (inactive),> 100 µM (inactive),–,29 µM (inactive),76.4 µM (inactive),26.1 µM (inactive),46.9 µM (inactive),38.4 µM (inactive),60 µM (inactive),17.3 µM (inactive),59.7 µM (inactive),> 100 µM (inactive),34.8 µM (inactive),24.9 µM (inactive),32.7 µM (inactive),68.5 µM (inactive),14.1 µM (inactive),31.2 µM (inactive)
O=C(/C=C\c1ccc([N+](=O)[O-])cc1)c1ccccc(=O)c1O,0.51 µM (active),< 0.0319 µM (active),1.14 µM (inactive),2.67 µM (inactive),1.42 µM (inactive),2.11 µM (inactive),1.01 µM (active),0.449 µM (active),2.49 µM (inactive),0.92 µM (active),2.49 µM (inactive),0.277 µM (active),1.81 µM (inactive),1.88 µM (inactive),4.65 µM (inactive),0.977 µM (active),1.77 µM (inactive),3.88 µM (inactive),–
C/C=C1\CC2C(=O)CCC2C2c3ccccc3OC12 (centres undefined),> 100 µM (inactive),> 100 µM (inactive),> 100 µM (inactive),–,> 100 µM (inactive),0.0617 µM (active),> 100 µM (inactive),> 100 µM (inactive),> 100 µM (inactive),> 100 µM (inactive),> 100 µM (inactive),> 100 µM (inactive),> 100 µM (inactive),> 100 µM (inactive),> 100 µM (inactive),> 100 µM (inactive),> 100 µM (inactive),> 100 µM (inactive),> 100 µM (inactive)
C[C@@H]1OC(=O)C[C@H]2CC(=O)N(CCC3CN(C(=O)c4ccccc4)c4ccccc43)C[C@@H]21 (some centres undefined),> 100 µM (inactive),–,> 100 µM (inactive),> 100 µM (inactive),> 100 µM (inactive),> 100 µM (inactive),> 100 µM (inactive),–,> 100 µM (inactive),> 100 µM (inactive),> 100 µM (inactive),> 100 µM (inactive),> 100 µM (inactive),> 100 µM (inactive),> 100 µM (inactive),> 100 µM (inactive),> 100 µM (inactive),> 100 µM (inactive),–
CCCCCC1=C2C(c3ccc(OC)cc3)=C(N)C(c3ccc(OC)cc3)=C3NC(=O)C(C=C1)C32 (centres undefined),29.7 µM (inactive),32.6 µM (inactive),28.1 µM (inactive),70.1 µM (inactive),36.3 µM (inactive),57.5 µM (inactive),98.2 µM (inactive),33.9 µM (inactive),60.7 µM (inactive),42.1 µM (inactive),57.1 µM (inactive),84.3 µM (inactive),92.3 µM (inactive),21.8 µM (inactive),25.4 µM (inactive),11.8 µM (inactive),> 100 µM (inactive),–,–
CCNc1nc2ccccc2nc1NCC,> 100 µM (inactive),> 100 µM (inactive),> 100 µM (inactive),–,> 100 µM (inactive),> 100 µM (inactive),> 100 µM (inactive),> 100 µM (inactive),> 100 µM (inactive),> 100 µM (inactive),> 100 µM (inactive),> 100 µM (inactive),> 100 µM (inactive),–,> 100 µM (inactive),> 100 µM (inactive),> 100 µM (inactive),> 100 µM (inactive),> 100 µM (inactive)
CN(C)CCNC(=O)c1cccc(N(C)C(=O)c2ccccc2)c1[N+](=O)[O-],> 100 µM (inactive),> 100 µM (inactive),> 100 µM (inactive),> 100 µM (inactive),> 100 µM (inactive),> 100 µM (inactive),> 100 µM (inactive),–,> 100 µM (inactive),> 100 µM (inactive),> 100 µM (inactive),> 100 µM (inactive),–,> 100 µM (inactive),> 100 µM (inactive),> 100 µM (inactive),> 10 µM (inactive),> 100 µM (inactive),> 100 µM (inactive)
CN(CCCNCc1ccccn1)Cc1ccccc1O,37.1 µM (inactive),50.8 µM (inactive),20.2 µM (inactive),34 µM (inactive),20.4 µM (inactive),40.1 µM (inactive),96.8 µM (inactive),23.1 µM (inactive),7.21 µM (inactive),39.8 µM (inactive),24.9 µM (inactive),43 µM (inactive),33.4 µM (inactive),12.4 µM (inactive),21.6 µM (inactive),57.9 µM (inactive),24.3 µM (inactive),> 100 µM (inactive),–
Cc1ccccc1-n1c(=O)c2ncn(CCCl)c2n(-c2ccccc2C)c1=S,> 100 µM (inactive),> 100 µM (inactive),> 100 µM (inactive),> 100 µM (inactive),> 100 µM (inactive),> 100 µM (inactive),> 100 µM (inactive),> 100 µM (inactive),> 100 µM (inactive),> 100 µM (inactive),> 100 µM (inactive),> 100 µM (inactive),> 100 µM (inactive),> 100 µM (inactive),–,> 100 µM (inactive),> 100 µM (inactive),–,> 100 µM (inactive)
COc1cc2nc(Nc3cccc(Br)c3)nc(Nc3cccc(Br)c3)c2cc1OC,17.3 µM (inactive),22.2 µM (inactive),15.1 µM (inactive),17.1 µM (inactive),17.7 µM (inactive),18.3 µM (inactive),19.2 µM (inactive),16.7 µM (inactive),21.5 µM (inactive),22.8 µM (inactive),16.6 µM (inactive),16.9 µM (inactive),19.1 µM (inactive),18 µM (inactive),16.8 µM (inactive),16.2 µM (inactive),> 10 µM (inactive),19.8 µM (inactive),–
CCCCOC(=O)C(=O)C(CC(CC)C(=O)c1ccccc1)C(=O)C=C(C)C (centres undefined),> 100 µM (inactive),> 100 µM (inactive),> 100 µM (inactive),–,> 100 µM (inactive),> 100 µM (inactive),> 100 µM (inactive),> 100 µM (inactive),> 100 µM (inactive),–,> 100 µM (inactive),> 100 µM (inactive),> 100 µM (inactive),> 100 µM (inactive),> 100 µM (inactive),> 100 µM (inactive),> 100 µM (inactive),> 100 µM (inactive),> 100 µM (inactive)
CC(C)(C)OC(=O)NC1CCCC1C(O)(C1=CCCC1)C1=CCCC1 (centres undefined),> 100 µM (inactive),> 100 µM (inactive),> 100 µM (inactive),25.6 µM (inactive),–,> 100 µM (inactive),> 100 µM (inactive),> 100 µM (inactive),–,–,> 100 µM (inactive),–,–,> 100 µM (inactive),> 100 µM (inactive),> 100 µM (inactive),> 100 µM (inactive),> 100 µM (inactive),–
COc1c(C)c(C/C=C(\C)CC/C=C(\C)CC/C=C(\C)CCC=C(C)C)c(OC)c(OC)c1OC,> 100 µM (inactive),> 100 µM (inactive),> 100 µM (inactive),–,> 100 µM (inactive),> 100 µM (inactive),> 100 µM (inactive),> 100 µM (inactive),> 100 µM (inactive),> 100 µM (inactive),> 100 µM (inactive),> 100 µM (inactive),> 100 µM (inactive),> 100 µM (inactive),> 100 µM (inactive),> 100 µM (inactive),> 100 µM (inactive),> 100 µM (inactive),> 100 µM (inactive)
CC1(C)[C@@H]2C[C@H]1c1cnc(-c3ccccn3)cc1C2[C@@H]1c2cc(-c3ccccn3)ncc2[C@@H]2C[C@H]1C2(C)C (some centres undefined),30.3 µM (inactive),47.5 µM (inactive),25.2 µM (inactive),55.1 µM (inactive),34.5 µM (inactive),> 100 µM (inactive),36.1 µM (inactive),> 100 µM (inactive),16.6 µM (inactive),22.6 µM (inactive),43.6 µM (inactive),53 µM (inactive),> 100 µM (inactive),39.1 µM (inactive),69.3 µM (inactive),29.3 µM (inactive),87.9 µM (inactive),> 100 µM (inactive),–
